Assay results as given in patent US11945862B2, “Compositions and methods for antibody production” (ImmunoGen, Inc., priority 2017, dated 2024).
Structures can show the parent of a compound that is named as a salt. Where two headings read alike, the source gives them in different places.

Experiments:
[1] = test system: Humanized FOLR1 IgG1 antibody; assay: Antibody disulfide reduction by CHO cell lysate (RIPA buffer), thiol per antibody by Ellman's assay; assay type: biochemical
Method: Lysates of CHO cells (˜60 million cells lysed in 0.6 ml RIPA buffer and clarified by centrifugation) were added to each of these mixtures. The pH values of all samples were adjusted to 7. […] The samples were incubated with 200 microliter immobilized-Protein A beads (RepliGen) and rotated at ambient temperature for 3 hours, after which the supernatant was removed and the beads washed with PBS. The thiol content of the immobilized antibody was determined by the addition of 0.2 ml of PBS containing 0.5 mM DTNB (Ellman's reagent) to the beads, rotation for about 10 minutes, centrifugation, and absorbance measurement of the supernatant at 412 nm.
The pH values of all samples were adjusted to 7. The samples were incubated with 200 microliter immobilized-Protein A beads (RepliGen) and rotated at ambient temperature for 3 hours, after which the supernatant was removed and the beads washed with PBS. The thiol content of the immobilized antibody was determined by the addition of 0.2 ml of PBS containing 0.5 mM DTNB (Ellman's reagent) to the beads, rotation for about 10 minutes, centrifugation, and absorbance measurement of the supernatant at 412 nm.
To test the effect of L-cystine bis(t-butyl ester) (CDBE) on protecting antibody disulfide bonds from reduction by CHO lysate, humanized FOLR1 IgG1 antibody (2 mg) was incubated with CHO lysate in RIPA buffer (0.6 ml lysate of 60 million CHO cells in 0.6 ml RIPA buffer, clarified by centrifugation) without or with 0.5 or 1 mM CDBE. The samples were rotated at ambient temperature with 200 microliter immobilized-Protein A beads (RepliGen) for 2 hours, after which the supernatant was removed and the beads washed with PBS. The thiol content of the immobilized antibody was determined by the addition of 0.2 ml of PBS containing 0.5 mM DTNB (Ellman's reagent) to the beads, centrifugation, and absorbance measurement of the supernatant at 412 nm.
The samples were rotated at ambient temperature with 200 microliter immobilized-Protein A beads (RepliGen) for 2 hours, after which the supernatant was removed and the beads washed with PBS. The thiol content of the immobilized antibody was determined by the addition of 0.2 ml of PBS containing 0.5 mM DTNB (Ellman's reagent) to the beads, centrifugation, and absorbance measurement of the supernatant at 412 nm.

humanized FOLR1 IgG1 = assay: Antibody fragmentation in HCCF treated with 20% (v/v) microfluidized CHO cells, non-reducing SDS-Protein Lab Chip; assay type: biochemical; settings: 1 mM of each additive, 6 h; control 78% fragmentation
Method: The samples were quenched with 5 mM N-ethylmaleimide (NEM), purified using immobilized Protein A, and subjected to non-reducing SDS-Protein Lab Chip electrophoretic analysis.

CHO cells = assay: Viability of CHO cells after 1 day treatment; settings: antibody-producing CHO cells, about two weeks continuous culture, control 63.8%
[2] = Reactivity of AQS with a model thiol, Ellman's assay of thiol groups; settings: 1 mM AQS with 1 mM cysteine ethyl ester, PBS, ambient temperature
Method: In a separate experiment, the reactivity of anthraquinone-2-sulfonic acid (AQS) with a model thiol (L-cysteine ethyl ester) at ambient temperature was investigated by incubating 1 mM AQS with 1 mM cysteine ethyl ester at ambient temperature in PBS, using Ellman's assay of thiol groups to measure the extent of reaction. At time points of 1 hour, 2 hours, 3 hours, and 4 hours, the percent decrease in thiol values for the 1 mM AQS with 1 mM cysteine ethyl ester mixture versus thiol in a 1 mM cysteine ethyl ester (No AQS) control were 2%, 8%, 12%, and 20%, respectively.

[3] = test system: Calu3 human lung cancer cells; assay: Cell viability, microscopic observation and Cell Titer Glo ATP assay; assay type: cell-based; settings: 1 day
Method: The effect of incubating cells with anthraquinone-2-sulfonic acid (AQS) was tested using Calu3 human lung cancer cells. Effects on cell viability were assayed by microscopic observation of cells and by ATP-based viability assay using Cell Titer Glo reagent (Promega).

humanized N901 antibody = assay: Antibody disulfide reduction by CHO cell lysate (RIPA buffer), thiol/antibody by Ellman's assay; assay type: biochemical; settings: for decrease in antibody-disulfide reduction: versus control without agent
Method: For all of the examples described below, cell damage was simulated by multiple freeze-thaw cycles of cells, by addition of RIPA buffer (50 mM Tris-HCl, pH 7.4, 1% NP-40, 0.5% sodium deoxycholate, 0.1% sodium dodecylsulfate), or by using microfluidizer. This damaged cell supernatant or lysate was then incubated with a buffered solution containing antibody with or without the anti-reduction agent being tested, following which the extent of the antibody-disulfide reduction was measured using Ellman's assay for thiol (P. W. Riddles, R. L. Blakeley, and B. Zerner, Methods Enzymol., 91, 49-60, 1983) or by non-reducing SDS protein LabChip analysis. The total thiol level present in the mixture of damaged cell supernatant/lysate was measured initially.
The effect of 1,2-naphthoquinone-4-sulfonic acid (NQS) on antibody-disulfide reduction was studied by incubating 1,2-naphthoquinone-4-sulfonic acid at several concentrations with antibody and damaged CHO lysate. The damaged CHO cell lysate was generated by the addition of 0.5 ml RIPA buffer (50 mM Tris-HCl, pH 7.4, 1% NP-40, 0.5% sodium deoxycholate, 0.1% sodium dodecylsulfate) to 100 million CHO cells. The thiol concentration in CHO cell lysate was measured by Ellman's assay as 2.1 mM.
Each sample contained pre-mixed 0.5 ml RIPA buffer (50 mM Tris-HCl, pH 7.4, 1% NP-40, 0.5% sodium deoxycholate, 0.1% sodium dodecylsulfate) with 1 mg humanized N901 antibody, with or without 1,2-naphthoquinone-4-sulfonic acid (25 micromolar, or 50 micromolar, or 100 micromolar), which was added to a cell pellet of 100 million CHO cells, and the resuspended cells were incubated at ambient temperature for 30 minutes, following which the cell debris were pelleted by centrifugation (16,000 g, 5 min). The supernatant from each sample was added to 50 microliter immobilized-Protein A beads (RepliGen) and rotated at ambient temperature for 3 hours, after which the supernatant was removed and the beads washed with PBS.
(§1) The thiol content of the immobilized antibody was determined by the addition of 0.6 ml of PBS containing 0.5 mM DTNB (Ellman's reagent) to the beads, rotation for about 10 minutes, centrifugation, and absorbance measurement of supernatant at 412 nm.
The effect of anthraquinone-2-sulfonic acid (AQS) on antibody-disulfide reduction was studied during co-incubation of anthraquinone-2-sulfonic acid with antibody and damaged CHO lysate. Each sample contained pre-mixed 1 ml RIPA buffer (50 mM Tris-HCl, pH 7.4, 1% NP-40, 0.5% sodium deoxycholate, 0.1% sodium dodecylsulfate) with 1 mg humanized N901 antibody, with or without 0.2 mM anthraquinone-2-sulfonic acid (AQS), which was added to a cell pellet of 100 million CHO cells, and the resuspended cells were incubated at ambient temperature for 30 minutes, following which the cell debris were pelleted by centrifugation (16,000 g, 5 min). The thiol concentration in CHO cell lysate was 1 mM (Ellman's assay).
as §1, with “The supernatant from each sample was added to 50 microliter immobilized-Protein A beads (RepliGen) and rotated at ambient temperature for 3 hours, after which the supernatant was removed and the beads washed with PBS. The” for “The”
In another experiment, 1 mg huN901 antibody was incubated with CHO lysate, with or without 0.4 mM anthraquinone-2-sulfonic acid for 4 hours. The mixture was then analyzed for thiol/antibody as above.
The thiol concentration in CHO cell lysate was 1 mM (Ellman's assay).
The supernatant from each sample was added to 50 microliter immobilized-Protein A beads (RepliGen) and rotated at ambient temperature for 3 hours, after which the supernatant was removed and the beads washed with PBS. […]

humanized IgG4 = assay: IgG4 disulfide reduction by CHO cell lysate, DTNB thiol assay; assay type: biochemical; settings: 1 mM agent, 30% v/v CHO cell lysate, 4 hours, pH 7; control 7.7
Method: All samples were adjusted to pH 7 and incubated with 200 μl protein A beads for 4 hours while rotating at room temperature. After the incubation the supernatant was removed and beads washed three times with 10 ml PBS. To analyze the thiol content of the protein A-bound IgG4 antibody, the beads were incubated with a 0.5 mM DTNB solution for 5 min and the absorbance of the supernatant measured at 412 nm.

Humanized IgG2 antibody = assay: IgG2 disulfide reduction by CHO cell lysate, DTNB thiol assay; assay type: biochemical; settings: 1 mM agent, 40% v/v CHO cell lysate, 5 hours, pH 7; control 0.84
Method: Humanized IgG2 antibody (1 mg/ml; final concentration) was incubated with 40% v/v CHO cell lysate (˜40 million cells lysed with 0.4 ml RIPA buffer and debris removed by centrifugation) in a total volume of 1 ml. The control sample was adjusted to pH 7 and rotated at RT for 5 hours with 100 μl protein A beads. […] After the incubation time of 5 hours, the supernatant was removed and the beads were washed three times with 10 ml PBS before the thiol amount of the immobilized antibody was analyzed by adding 0.5 mM DTNB and measuring the absorbance at 412 nm.

physchem = settings: thermodynamic from solid
Source text: The pH was adjusted to pH 7.1 and the sample was rotated overnight at ambient temperature followed by centrifugation to remove undissolved L-cystine dihydrochloride.

[4] = Redox potential of antibody solution with media additive over a range of DTT concentrations; assay type: physicochemical; settings: 1 mM additive, DTT 0.34 μM to 170 μM, 37° C., 1 h
M9346A antibody [5] = assay type: biochemical; settings: 1 mM additive, conditions where control without additive was 100% fragmented
Method: Antibody reduction was induced in a biological assay by adding cell lysate to purified monoclonal antibody. […]. Increasing amounts of CHO cell lysate were added to mimic different percentages of cell lysis, ranging from […]. Fresh NADPH was added to a concentration of 400 μM. The mixtures were incubated in a water bath at 37° C. for 1 h. Free thiols were alkylated by addition of 10% (v/v) of 50 mM N-ethyl-maleimide (NEM) solution. Samples were analyzed by non-reduced sodium dodecyl sulfate denaturing capillary electrophoresis (NR-CE-SDS).
To test the capacity for protection further, the stringency of the assay was increased. […].

M9346A antibody [6] = assay type: biochemical

O=C1c2ccccc2C(=O)c2cc(S(=O)(=O)O)ccc21 [AQS, anthraquinone-2-sulfonic acid]
thiol per antibody ([1]; 2 mM agent, 3 hours, pH 7, lysate of ~40 million cells, control 0.95): about 0.18 thiol per antibody | fragmentation compared with no additive control (humanized FOLR1 IgG1): much lower fragmentations | viability count using trypan blue (CHO cells; 0.25 mM): 66.2% | viability count using trypan blue (CHO cells; 0.5 mM): 64.8% | viability count using trypan blue (CHO cells; 0.75 mM): 61.7% | percent decrease in thiol versus No AQS control ([2]; 1 hour): 2% | percent decrease in thiol versus No AQS control ([2]; 2 hours): 8% | percent decrease in thiol versus No AQS control ([2]; 3 hours): 12% | percent decrease in thiol versus No AQS control ([2]; 4 hours): 20% | Cell Titer Glo luminescence relative to control cells ([3]; 0.25 mM): 100% | Cell Titer Glo luminescence relative to control cells ([3]; 0.5 mM): 85% | cytotoxic effects by microscopic observation ([3]; 0.25 and 0.5 mM): no visible cytotoxic effects | thiol/antibody (humanized N901 antibody; 0.2 mM agent, 3 hours, lysate thiol 1 mM, control 4.86): 2.46 thiol/antibody | decrease in antibody-disulfide reduction (humanized N901 antibody; 0.2 mM agent, 3 hours): 49% | thiol/antibody (humanized N901 antibody; 0.4 mM agent alone, 4 hours, control 4.34): 1.65 thiol/antibody | decrease in antibody-disulfide reduction (humanized N901 antibody; 0.4 mM agent, 4 hours): 62%

CC(C)(C)OC(=O)[C@@H](N)CSSC[C@H](N)C(=O)OC(C)(C)C [CDBE, L-cystine bis(t-butyl ester)]
decrease in disulfide reduction compared to the control ([1]; 0.25 mM agent, another experiment): about 78% | decrease in disulfide reduction compared to the control ([1]; 0.5 mM agent, 2 hours): about 93% | thiol per antibody ([1]; 0.5 mM agent, 2 hours, control 2.26): about 0.16 thiol per antibody | decrease in disulfide reduction compared to the control ([1]; 1 mM agent, 2 hours): ~96% | thiol per antibody ([1]; 1 mM agent, 2 hours, control 2.26): ~0.10 thiol per antibody | decrease in disulfide reduction compared to the control ([1]; 2 mM agent, another experiment): ~98% | thiol groups per antibody (humanized IgG4): no reduced disulfides were detected | reduced thiols per antibody (Humanized IgG2 antibody): near-zero reduction

CC(C)(C)OC(=O)[C@@H](N)CSSC[C@H](N)C(=O)OC(C)(C)C [L-cystine bis(t-butyl ester) dihydrochloride]
solubility (physchem; water): ≥ 500 mM

Cl.Cl.N[C@@H](CSSC[C@H](N)C(=O)O)C(=O)O [L-cystine dihydrochloride, reference compound]
thiol per antibody ([1]; L-cystine derived from saturated L-cystine solution, 3 hours, pH 7, control 1.96): about 0.74 thiol per antibody | solubility (physchem; pH 7.1, aqueous buffer): < 5 mM

O=S(=O)([O-])[O-].[Cu+2] [copper sulfate]
modulation of redox potential [4]: constant redox potential across all DTT concentrations | protection at increased assay stringency (M9346A antibody [5]): protective of disulfide reduction | intact antibody (M9346A antibody [6]): 100%

[O]=[Cr](=[O])([O-])[O][Cr](=[O])(=[O])[O-] [dichromate, reference compound]
modulation of redox potential [4]: constant redox potential across all DTT concentrations | intact antibody (M9346A antibody [6]; 1 mM additive, 100 μM DTT, 37° C., 1 h, control 80%): 100%
